Results taken from the supplement of paper PMC10307832.

Legend:
Test in all cases: relative viability (nuclei count vs DMSO), 5 days (fraction); higher = more cells survive
17-AAG + Palbociclib = compound: C=CCNC1=C2C[C@@H](C)C[C@H](OC)[C@H](O)[C@@H](C)/C=C(\C)[C@H](OC(N)=O)[C@@H](OC)/C=C\C=C(/C)C(=O)NC(=CC1=O)C2=O [17-AAG] + CC(=O)c1c(C)c2cnc(Nc3ccc(N4CCNCC4)cn3)nc2n(C2CCCC2)c1=O [Palbociclib] (partner 0.5 µM)
Outline: (§1)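 Medians of duplicate plates are given as relative viability. That measure is the nuclei count in treated wells divided by the count in vehicle wells. Counts were taken on 4× images of lung cancer cell lines in 1536-well plates, 5 days after pin-tool dosing the day after seeding with one drug alone or a fixed anchor-drug dose plus five library-drug doses (not always all listed) in √10 steps.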

17-AAG + Pictilisib = compound: C=CCNC1=C2C[C@@H](C)C[C@H](OC)[C@H](O)[C@@H](C)/C=C(\C)[C@H](OC(N)=O)[C@@H](OC)/C=C\C=C(/C)C(=O)NC(=CC1=O)C2=O [17-AAG] + CS(=O)(=O)N1CCN(Cc2cc3nc(-c4cccc5[nH]ncc45)nc(N4CCOCC4)c3s2)CC1 [Pictilisib] (partner 1 µM)
Outline: as §1

17-AAG + Phenformin = compound: C=CCNC1=C2C[C@@H](C)C[C@H](OC)[C@H](O)[C@@H](C)/C=C(\C)[C@H](OC(N)=O)[C@@H](OC)/C=C\C=C(/C)C(=O)NC(=CC1=O)C2=O [17-AAG] + N=C(N)NC(=N)NCCc1ccccc1 [Phenformin] (partner 250 µM)
Outline: as §1

17-AAG + Decitabine = compound: C=CCNC1=C2C[C@@H](C)C[C@H](OC)[C@H](O)[C@@H](C)/C=C(\C)[C@H](OC(N)=O)[C@@H](OC)/C=C\C=C(/C)C(=O)NC(=CC1=O)C2=O [17-AAG] + Nc1ncn([C@H]2C[C@H](O)[C@@H](CO)O2)c(=O)n1 [Decitabine] (partner 2 µM)
Outline: as §1

Row | Cell Line | relative viability (17-AAG + Palbociclib; first compound 0.00128 µM) | relative viability (17-AAG + Palbociclib; first compound 0.004048 µM) | relative viability (17-AAG + Palbociclib; first compound 0.0128 µM) | relative viability (17-AAG + Palbociclib; first compound 0.04048 µM) | relative viability (17-AAG + Palbociclib; first compound 0.128 µM) | relative viability (17-AAG + Pictilisib; first compound 0.00128 µM) | relative viability (17-AAG + Pictilisib; first compound 0.004048 µM) | relative viability (17-AAG + Pictilisib; first compound 0.0128 µM) | relative viability (17-AAG + Pictilisib; first compound 0.04048 µM) | relative viability (17-AAG + Pictilisib; first compound 0.128 µM) | relative viability (17-AAG + Phenformin; first compound 0.00128 µM) | relative viability (17-AAG + Phenformin; first compound 0.004048 µM) | relative viability (17-AAG + Phenformin; first compound 0.0128 µM) | relative viability (17-AAG + Phenformin; first compound 0.04048 µM) | relative viability (17-AAG + Phenformin; first compound 0.128 µM) | relative viability (17-AAG + Decitabine; first compound 0.00128 µM) | relative viability (17-AAG + Decitabine; first compound 0.004048 µM) | relative viability (17-AAG + Decitabine; first compound 0.0128 µM) | relative viability (17-AAG + Decitabine; first compound 0.04048 µM) | relative viability (17-AAG + Decitabine; first compound 0.128 µM)
1 | NCI-H2009 | 0.22 | 0.254 | 0.258 | 0.203 | 0.0584 | 0.744 | 0.829 | 0.744 | 0.277 | 0.091 | 0.499 | 0.43 | 0.481 | 0.412 | 0.128 | 0.421 | 0.398 | 0.342 | 0.265 | 0.134
2 | NCI-H2126 | 0.358 | 0.375 | 0.364 | 0.344 | 0.349 | 0.509 | 0.533 | 0.492 | 0.316 | 0.284 | 0.576 | 0.563 | 0.305 | 0.289 | 0.271 | 0.556 | 0.631 | 0.616 | 0.622 | 0.456
3 | LXF-289 | 0.606 | 0.55 | 0.602 | 0.545 | 0.227 | 0.823 | 0.805 | 0.239 | 0.107 | 0.0836 | 0.544 | 0.511 | 0.189 | 0.0865 | 0.0697 | 0.4 | 0.473 | 0.355 | 0.297 | 0.19
4 | HCC-44 | 0.944 | 1.01 | 0.991 | 0.978 | 0.914 | 0.623 | 0.564 | 0.319 | 0.152 | 0.113 | 0.22 | 0.285 | 0.158 | 0.0925 | 0.0873 | 0.927 | 0.964 | 0.931 | 0.958 | 0.355
5 | PC-3 [JPC-3] | 0.575 | 0.57 | 0.551 | 0.463 | 0.528 | 0.795 | 0.791 | 0.727 |  | 0.586 | 0.481 | 0.472 | 0.485 |  | 0.468 | 0.829 | 0.816 | 0.911 | 0.451 | 0.658
6 | HOP-62 | 0.465 | 0.451 | 0.403 | 0.268 | 0.273 | 0.811 | 0.807 | 0.748 | 0.11 | 0.0928 | 0.711 | 0.541 | 0.404 | 0.305 | 0.118 | 0.24 | 0.238 | 0.25 | 0.167 | 0.172
7 | NCI-H358 | 0.171 | 0.0944 | 0.0747 | 0.0677 | 0.079 | 0.392 | 0.219 | 0.125 | 0.131 | 0.126 | 0.321 | 0.155 | 0.0612 | 0.0774 | 0.0534 | 0.198 | 0.141 | 0.0682 | 0.0758 | 0.062
8 | SK-MES-1 | 0.347 | 0.394 | 0.281 | 0.211 | 0.164 | 0.414 | 0.387 | 0.139 | 0.134 | 0.1 | 0.697 | 0.561 | 0.389 | 0.202 | 0.194 | 0.405 | 0.362 | 0.197 | 0.145 | 0.141
9 | NCI-H1666 | 0.618 | 0.672 | 0.609 | 0.519 | 0.526 | 0.585 | 0.302 | 0.265 | 0.196 | 0.157 | 0.547 | 0.56 | 0.432 | 0.316 | 0.329 | 0.74 | 0.804 | 0.641 | 0.364 | 0.363
10 | NCI-H1355 | 0.414 | 0.386 | 0.385 | 0.302 | 0.157 | 0.512 | 0.439 | 0.264 | 0.183 | 0.151 | 0.492 | 0.457 | 0.388 | 0.186 | 0.165 | 0.35 | 0.345 | 0.361 | 0.246 | 0.183
11 | HCC-827 | 0.47 | 0.463 | 0.499 |  | 0.325 | 1.21 | 1.03 | 0.923 |  | 1.02 | 0.368 | 0.447 | 0.363 |  | 0.251 | 0.279 | 0.363 | 0.308 |  | 0.306
12 | HARA | 0.248 | 0.27 | 0.261 | 0.263 | 0.215 | 0.49 | 0.445 | 0.385 | 0.16 | 0.164 | 0.443 | 0.456 | 0.367 | 0.418 | 0.113 | 0.517 | 0.57 | 0.617 | 0.569 | 0.232
13 | HCC-366 | 0.415 | 0.361 | 0.126 | 0.0306 | 0.031 | 0.16 | 0.0822 | 0.0477 | 0.0368 | 0.0284 | 0.653 | 0.591 | 0.159 | 0.0455 | 0.0292 | 0.306 | 0.393 | 0.08 | 0.0528 | 0.0434
14 | NCI-H441 | 0.283 | 0.166 | 0.108 | 0.116 | 0.107 | 0.582 | 0.334 | 0.285 | 0.216 | 0.124 | 0.877 | 0.397 | 0.184 | 0.182 | 0.129 | 0.275 | 0.219 | 0.121 | 0.118 | 0.137
15 | NCI-H2405 | 0.541 | 0.525 | 0.364 | 0.219 | 0.174 | 0.521 | 0.248 | 0.175 | 0.179 | 0.164 | 0.398 | 0.383 | 0.33 | 0.209 | 0.185 | 0.714 | 0.675 | 0.424 | 0.242 | 0.189
16 | NCI-H1975 | 0.547 | 0.526 | 0.22 | 0.106 | 0.104 | 0.3 | 0.176 | 0.116 | 0.119 | 0.103 | 0.385 | 0.287 | 0.204 | 0.13 | 0.0987 | 0.378 | 0.396 | 0.266 | 0.175 | 0.14
